Results: patent US5473057A, “Eleutherobin and analogs thereof” (The Regents of the University of California, priority 1994, dated 1995)
“Also recorded” adds a separate entry of the source. Where two headings read alike, the source gives them in different places.

Tests used:
[1] = in words, background art; cited from earlier work
[2] = tested on: HCT116/VM46 human colon carcinoma subline, which overexpresses P-glycoprotein; assay: In vitro cytotoxicity in multidrug resistant subline HCT116/VM46 (XTT assay); format: cell-based; conditions: for fold resistance relative to corresponding parent cell line: HCT116/VM46 relative to HCT116, 4320 min; for IC50: Homo sapiens, HCT-116/VM46, HCT116/VM46, 72 hour exposure, XTT assay
Protocol: (§1) Eleutherobin and the above described analogs are useful as cytotoxic agents. The compounds are used in the same manner as other known cytotoxic agents. They may be used alone or in combination with suitable pharmaceutical carriers and other bioactive materials. They are used both in vitro and in vivo to kill a wide variety of cell types. […] For example, in vitro toxicity of eleutherobin was tested in the HCT116 human colon carcinoma cell line and a multidrug resistant subline, HCT116/VM46, which overexpresses P-glycoprotein and is over 100-fold resistant to taxol. […] The cytotoxicity of eleutherobin was also tested in a human ovarian carcinoma cell line A2780. Eleutherobin was also found to be cytotoxic with respect to the A2780 cell line.
(§2) ^1 Cytotoxicity was determined after 72 hour exposure by XTT assay.
^2 Value in parenthesis is fold resistance relative to corresponding

[3] = tested on: human ovarian carcinoma cell line A2780; assay: In vitro cytotoxicity in A2780 (XTT assay); format: cell-based; conditions: for IC50: Homo sapiens
Protocol: as §1, §2

[4] = tested on: HCT116 human colon carcinoma cell line; assay: In vitro cytotoxicity in HCT116 (XTT assay); format: cell-based; conditions: for IC50: Homo sapiens
Protocol: as §1, §2

cancer cells = assay: Cytotoxicity, general statement; format: cell-based; conditions: in words

For CC1=CC(=O)[C@H](C(C)C)[C@H]2/C=C(/C)[C@@]3(O)C=C[C@](C)(O3)[C@@H](OC(=O)Cc3ccccc3)C[C@@H]12 [Valdivone B], the anti-inflammatory activity [1] is listed as “anti-inflammatory activity”.
For CO[C@]12C=C[C@](C)(O1)[C@@H](OC(=O)/C=C/c1cn(C)cn1)C[C@H]1C(C)=CC[C@H](C(C)C)[C@H]1/C=C\2COC1OCC(O)C(O)C1OC(C)=O (some centres unmarked) [Eleutherobin], the “fold resistance relative to corresponding parent cell line” value [2] was 52 fold, the IC50 [2] was 554 nM and the IC50 ([3]; A2780, 72 h) was 13.7 nM. The “cytotoxicity with respect to the A2780 cell line” value ([3]; in words, A2780) was “cytotoxic”, the IC50 ([4]; HCT-116, 72 h) was 10.7 nM and the “cytotoxicity in the HCT116 cell line compared with taxol” value ([4]; in words, HCT116) was “nearly as cytotoxic as taxol”. The cytotoxicity (cancer cells) was “effective cytotoxin; also recorded: cytotoxic with respect to cancer cells”.
With CC(=O)O[C@H]1C(=O)[C@@]2(C)[C@H]([C@H](OC(=O)c3ccccc3)[C@]3(O)C[C@H](OC(=O)[C@H](O)[C@@H](NC(=O)c4ccccc4)c4ccccc4)C(C)=C1C3(C)C)[C@]1(OC(C)=O)CO[C@@H]1C[C@@H]2O [paclitaxel (taxol), paclitaxel] the “fold resistance relative to corresponding parent cell line” value [2] was 117 fold, the “fold resistance relative to corresponding parent cell line” value ([2]; listed as taxol) was “over 100 fold” and the IC50 [2] was 5.37 nM. For the same compound, the IC50 ([3]; A2780, 72 hour exposure, XTT assay, read-out: IC50) was 6.7 nM and the IC50 ([4]; HCT-116, HCT116, 72 hour exposure, XTT assay, read-out: IC50) was 4.6 nM.
For CC(C)=CC(=O)O[C@H]1C[C@H]2C(C)=CC(=O)[C@H](C(C)C)[C@H]2/C=C(/C)[C@@]2(O)C=C[C@]1(C)O2 [Valdivone A], the anti-inflammatory activity [1] is given as “anti-inflammatory activity”.
